{"source": "patent US12622894B2", "about": "“Pharmaceutical compositions and intravitreal drug delivery systems for the treatment of ocular diseases” (Perfuse Therapeutics, Inc., priority 2021, dated 2026)", "key": {"[1]": {"conditions": "cited from earlier work"}, "[2]": {"test": "Slurry conversion of crystalline forms in isopropanol and water, XRPD analysis", "type": "physicochemical", "method": "In an alternate method, 150 mg of Edonentan (Form 3) was added to a mixture of isopropanol and water (1 mL and 2 mL, respectively). The resulting slurry was stirred at 15° C. for 48 hours and then filtered.\nIn an alternate method, 200 mg of Edonentan (Form 1) was added to a mixture of isopropanol and water (1.3 mL and 2.6 mL, respectively). The resulting solution was heated to 80° C. and stirred for 24 h, then cooled and filtered."}, "[3]": {"conditions": "pH 7.4 in 2 mg/mL melanin solution; cited from earlier work"}, "[4]": {"test": "In vitro melanin binding assay with synthetic melanin", "conditions": "200 μM; melanin 1 mg/mL", "description": "A concentration of 200 μM chloroquine was used as a positive control."}}}
{"smiles": "Cc1onc(NS(=O)(=O)c2ccccc2-c2ccc(-c3ncco3)cc2CN(C)C(=O)CC(C)(C)C)c1C", "note": "[Edonentan, N-[[2′-[[(4,5-dimethyl-3-isoxazolyl)amino]sulfonyl]-4-(2-oxazolyl)[1,1′-biphenyl]-2-yl]methyl]-N,3,3-trimethylbutanamide]", "values": [{"measurement": "oral Tmax", "setting": "[1]", "value": 24, "unit": "min"}]}
{"smiles": "Cc1onc(NS(=O)(=O)c2ccccc2-c2ccc(-c3ncco3)cc2CN(C)C(=O)CC(C)(C)C)c1C", "note": "[Form 1]", "values": [{"measurement": "Solubility pH 7.0 Phosphate Buffer", "value": 264, "unit": "μg/mL"}]}
{"smiles": "Cc1onc(NS(=O)(=O)c2ccccc2-c2ccc(-c3ncco3)cc2CN(C)C(=O)CC(C)(C)C)c1C", "note": "[Form 2]", "values": [{"measurement": "Solubility pH 7.0 Phosphate Buffer", "value": 35, "unit": "μg/mL"}]}
{"smiles": "Cc1onc(NS(=O)(=O)c2ccccc2-c2ccc(-c3ncco3)cc2CN(C)C(=O)CC(C)(C)C)c1C", "note": "[Form 3]", "values": [{"measurement": "Solubility pH 7.0 Phosphate Buffer", "value": 251, "unit": "μg/mL"}]}
{"smiles": "Cc1onc(NS(=O)(=O)c2ccccc2-c2ccc(-c3ncco3)cc2CN(C)C(=O)CC(C)(C)C)c1C", "note": "[Form 4]", "values": [{"measurement": "relative thermodynamic stability of crystalline forms", "setting": "[2]; Form 1 in isopropanol and water, 80° C., 24 h", "value": "more thermodynamically stable than Form 1"}, {"measurement": "relative thermodynamic stability of crystalline forms", "setting": "[2]; slurry of Form 3 in isopropanol and water, 15° C., 48 hours", "value": "more thermodynamically stable than Form 3"}]}
{"smiles": "CCN(CC)CCCC(C)Nc1ccnc2cc(Cl)ccc12", "note": "(centres unmarked) [chloroquine]", "values": [{"measurement": "bound to melanin, literature values", "setting": "[3]", "value": "92-99.6 % bound"}, {"measurement": "binding to melanin (% bound)", "setting": "[4]", "value": 99.5, "unit": "% bound"}]}
